How the values were obtained:
[1] = target: T1, phosphatidylinositol glycan anchor biosynthesis class W (PIGW) protein (Homo sapiens, UniProt Q7Z7B1); experiment: Inhibition of PIGW, closest mammalian ortholog of GWT1; type: biochemical; conditions: closest mammalian ortholog of the fungal GWT1 protein
T1 sequence (Q7Z7B1 1-504): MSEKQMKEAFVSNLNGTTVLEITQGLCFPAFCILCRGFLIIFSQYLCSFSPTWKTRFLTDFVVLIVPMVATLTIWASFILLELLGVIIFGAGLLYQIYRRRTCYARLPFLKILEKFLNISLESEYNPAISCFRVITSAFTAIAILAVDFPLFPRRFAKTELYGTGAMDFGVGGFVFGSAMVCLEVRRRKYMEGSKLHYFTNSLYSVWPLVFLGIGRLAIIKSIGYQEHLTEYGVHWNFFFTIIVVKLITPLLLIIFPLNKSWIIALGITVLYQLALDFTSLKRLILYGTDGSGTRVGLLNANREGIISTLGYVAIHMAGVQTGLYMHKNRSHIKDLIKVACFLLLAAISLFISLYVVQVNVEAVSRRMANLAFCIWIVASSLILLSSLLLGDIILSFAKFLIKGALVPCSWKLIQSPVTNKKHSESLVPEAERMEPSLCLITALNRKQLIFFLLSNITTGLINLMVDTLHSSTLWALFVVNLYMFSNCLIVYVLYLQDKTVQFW
Description: (§1) Compound 1A inhibits the fungal glycosylphosphatidylinositol (GPI)-anchored wall transfer protein 1 (GWT1) enzyme, a highly conserved inositol acylase that catalyzes an early step in the GPI-anchored biosynthesis pathway. This inhibition has pleiotropic effects on the fungal cell due to inhibition of cell wall mannoprotein localization, which comprises cell wall integrity, biofilm formation, germ tube formation, and fungal growth.

[2] = tested on: Aspergillus spp. clinical isolates; experiment: 2017 and 2018 surveillance of antifungal activity against Aspergillus clinical isolates (MEC); type: cell-based; conditions: Aspergillus isolates likely to be found in the clinical patient population
Method: The MEC in […] (MEC90) for Aspergillus isolates likely to be found in the clinical patient population under study is 0.03 μg/mL.

[3] = tested on: Candida spp., Cryptococcus spp., Aspergillus spp., Scedosporium spp., Fusarium spp., and some Mucorales fungi; experiment: In vitro antifungal activity; type: cell-based
Description: These rare mold and rare yeast species generally pose no threat to healthy subjects, but can lead to invasive mold infections in immunocompromised individuals.

[4] = tested on: Aspergillus fumigatus, Scedosporium prolificans, and Fusarium solani; experiment: 5-fluorouracil immunosuppressed mice with IMIs; type: in vivo
[5] = target: fungal glycosylphosphatidylinositol (GPI)-anchored wall transfer protein 1 (GWT1) enzyme (Saccharomyces cerevisiae, UniProt P47026); experiment: Inhibition of fungal GWT1 enzyme; type: biochemical
Description: as §1

[6] = tested on: Aspergillus spp. or rare molds; experiment: Phase 2 open-label study in patients with invasive mold infections; type: in vivo, human; conditions: 12 patients treated
Description: This is a Phase 2, multicenter, open-label, non-comparative study to evaluate the safety and efficacy of compound 1 for the treatment of IMIs caused by Aspergillus spp. or rare molds (e.g., Scedosporium spp., Fusarium spp., and Mucorales fungi). Patients 18 years of age or older will undergo Screening procedures for up to 5 days, following which eligible patients will participate in the study drug Treatment Period for up to 6 weeks, with a Follow-Up Visit 4 weeks after EOST, and a Follow-Up Phone Call 12 weeks after Day 1 (Day 84). The total duration of a patient's participation in the study will be approximately 12 weeks, inclusive of the follow-up telephone call required on Day 84. Patients who require treatment for longer than 6 weeks can be switched to other licensed antifungal therapy (OLAT) at the discretion of the Investigator and in consultation with the Medical Monitor if the situation allows.
This study will consist of a single treatment arm consisting of a loading dose of 1000 mg compound 1, administered over 3 hours by IV infusion twice daily (BID) within the first 24 hours after initiation of the first infusion. On Days 2 and 3, 600 mg compound 1 will be administered over 3 hours by IV infusion once daily (QD). […]

[7] = Phase 1, healthy volunteers
Description: The duration of the multiple-dose regimens in these studies was 7, 14, and 42 days (6 weeks).
One dose regimen of compound 1 will be evaluated in this study.

[8] = in vivo
[9] = tested on: Fusarium, Aspergillus/Lichtheimia, C. albicans, L. prolificans infection; conditions: human, in vivo
Description: Population: A total of 15 patients with life-threatening/serious fungal infections received treatment, with slight modifications. […] Of these patients, 12 have an invasive Fusarium infection, while the remaining patients have Aspergillus/Lichtheimia infection, C. albicans infection, and L. prolificans infection. […] These patients show a broad range of fungal infection sites with sinus, spine, ankle, skin, eye, brain, and disseminated infections all observed. Many of these patients also have an underlying disease/condition, such as AML/ALL/MDS, SC/solid organ transplantation, or trauma.
Updates to Dosing Regimen: Seven patients received IV dosing of compound 1, and six of these seven switched to oral doses. Eight patients received oral doses only. […] Additionally, eight patients received oral compound 1 at 400 mg BID rather than 800 mg QD.

A. fumigatus = experiment: PK-PD study in immunocompromised mice infected with 6 strains of A. fumigatus; type: in vivo; conditions: fungal burden (CEs by qPCR) in lung homogenates at 96 hours; 6 A. fumigatus strains
Method: Pharmacokinetic-pharmacodynamic (PK-PD) studies in immunosuppressed mice with invasive infections caused by A. fumigatus have shown that the area under the concentration-time curve (AUC) divided by the minimal effective concentration (MEC) ratio is the driver of efficacy.
In a pharmacokinetic/pharmacodynamic (PK-PD) study, immunocompromised mice were infected with 6 strains of A. fumigatus, inclusive of wild type, azole-resistant, and echinocandin-resistant strains. Groups of animals were dosed with compound 1 at different dose fractionations. […] The stasis and 1-logarithm drop endpoints were defined as the quantity of A. fumigatus in CEs just prior to compound 1 administration compared to CEs at the endpoint of assessment at 96 hours.

Sequence of fungal glycosylphosphatidylinositol (GPI)-anchored wall transfer protein 1 (GWT1) enzyme (P47026 whole entry): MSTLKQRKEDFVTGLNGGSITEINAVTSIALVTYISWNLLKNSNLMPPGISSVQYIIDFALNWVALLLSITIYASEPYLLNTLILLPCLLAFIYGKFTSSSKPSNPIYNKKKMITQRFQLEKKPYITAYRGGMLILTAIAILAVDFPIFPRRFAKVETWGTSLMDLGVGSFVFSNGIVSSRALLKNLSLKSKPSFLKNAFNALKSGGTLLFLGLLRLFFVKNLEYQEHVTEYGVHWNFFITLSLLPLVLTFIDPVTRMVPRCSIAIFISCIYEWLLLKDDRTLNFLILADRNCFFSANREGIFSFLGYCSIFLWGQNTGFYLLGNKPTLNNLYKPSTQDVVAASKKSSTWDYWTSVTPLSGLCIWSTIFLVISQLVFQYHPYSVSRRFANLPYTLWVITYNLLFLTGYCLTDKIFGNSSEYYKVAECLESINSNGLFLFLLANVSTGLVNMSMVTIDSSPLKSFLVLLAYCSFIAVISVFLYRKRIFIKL

Row | SMILES | inhibition of PIGW protein [1] | MEC90 [2] [µg/mL] | in vitro antifungal activity ([3]; including azole- and echinocandin-resistant strains) | antifungal activity against clinical isolates of rare mold and rare yeast infections ([3]; rare molds and rare yeasts listed) | pulmonary fungal colony counts [4] | survival rates [4] | inhibition of fungal GWT1 enzyme [5] | patients with good response (at Day 42 or earlier) [6] [patients] | safety and tolerability of the dose regimen [7] | conversion of prodrug to active moiety compound 1A [8] | tissue distribution [8] | tolerability over extended treatment durations [9] | median total drug AUC/MEC which achieved 1-logarithm kill endpoint (A. fumigatus) | median total drug AUC/MEC which achieved stasis endpoint (A. fumigatus)
1 | Nc1ncccc1-c1cc(Cc2ccc(COc3ccccn3)cc2)no1 [Compound 1A] | does not inhibit | 0.03 | broad in vitro antifungal activity | antifungal activity against a broad range of clinical isolates | reduced pulmonary fungal colony counts | statistically significantly improved survival rates | inhibits | – | – | – | – | – | – | –
2 | Nc1c(-c2cc(Cc3ccc(COc4ccccn4)cc3)no2)ccc[n+]1COP(=O)([O-])O [compound 1] | – | – | – | – | – | – | – | 8 | safe and well tolerated | rapidly converted in vivo by phosphatases | wide-tissue distribution, including the eye and central nervous system | generally well tolerated | 5258.2 | 2801.6

From US12521406B2, “Use of compounds in the treatment of fungal infections” (Basilea Pharmaceutica International AG, Allschwil, priority 2020, dated 2026)
